Source: the NIST ThermoML archive (doi:10.1021/je400238j)
± gives the expanded uncertainty stated by the source.

Details: Liquid, Ebulliometric method (Recirculating still)

Structure (SMILES) | vapor or sublimation pressure (323.46 K) | vapor or sublimation pressure (338.72 K) | vapor or sublimation pressure (348.56 K) | vapor or sublimation pressure (351.51 K) | vapor or sublimation pressure (359.76 K) | vapor or sublimation pressure (360.06 K) | vapor or sublimation pressure (380.43 K) | vapor or sublimation pressure (380.94 K) | vapor or sublimation pressure (394.09 K) | vapor or sublimation pressure (394.6 K) | vapor or sublimation pressure (398.49 K) | vapor or sublimation pressure (398.74 K)
CCO [ethanol] | 30 ± 1.3 kPa | 60 ± 1.5 kPa | 90 ± 1.8 kPa | 101.3 ± 2 kPa |  |  |  |  |  |  |  | 
CCCCCCCC [octane] |  |  |  |  | 30 ± 1.3 kPa | 30 ± 2.5 kPa | 60 ± 1.5 kPa | 60 ± 4.7 kPa | 90 ± 1.9 kPa | 90 ± 7 kPa | 101.3 ± 2 kPa | 101.3 ± 7.9 kPa
